Holding throughout (format): cell-based
Experiment [1] deals with T1, TYK2 (Homo sapiens, UniProt P29597). The experiment is described as follows: TYK2 degradation MSD assay in EBV-B cells. Details: endogenous in cells; host or cells: EBV-B cells. Particulars: 4 to 24 hours incubation, read-out: TYK2 MSD DC50 rating in EBV-B. An outline of the steps:
(§1)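 TYK2 levels in lysed cells, detected via antibody capture and SULFO-TAG electrochemiluminescence, were compared across a nine-point threefold compound dilution (highest 1 to 10 μM) after 4–24 h culture at 37° C under 5% CO2. Four-parameter nonlinear regression of the dose response yielded DC50.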

In experiment [2] the target is T1, TYK2. Nature of the experiment: TYK2 degradation MSD assay in OCI-LY10 cells. Details: endogenous in cells; host or cells: EBV-B cells. The conditions noted are these: 4 to 24 hours incubation, read-out: TYK2 MSD DC50 rating in OCI-LY10. An outline of the steps: as §1
For experiment [3], the target named is T1, TYK2. Nature of the experiment: TYK2 degradation MSD assay in human PBMC cells. Details: endogenous in cells; host or cells: human PBMC. Particulars: 4 to 24 hours incubation, read-out: TYK2 MSD DC50 rating in human PBMC. Summed up:
as §1

T1 sequence (P29597 whole entry): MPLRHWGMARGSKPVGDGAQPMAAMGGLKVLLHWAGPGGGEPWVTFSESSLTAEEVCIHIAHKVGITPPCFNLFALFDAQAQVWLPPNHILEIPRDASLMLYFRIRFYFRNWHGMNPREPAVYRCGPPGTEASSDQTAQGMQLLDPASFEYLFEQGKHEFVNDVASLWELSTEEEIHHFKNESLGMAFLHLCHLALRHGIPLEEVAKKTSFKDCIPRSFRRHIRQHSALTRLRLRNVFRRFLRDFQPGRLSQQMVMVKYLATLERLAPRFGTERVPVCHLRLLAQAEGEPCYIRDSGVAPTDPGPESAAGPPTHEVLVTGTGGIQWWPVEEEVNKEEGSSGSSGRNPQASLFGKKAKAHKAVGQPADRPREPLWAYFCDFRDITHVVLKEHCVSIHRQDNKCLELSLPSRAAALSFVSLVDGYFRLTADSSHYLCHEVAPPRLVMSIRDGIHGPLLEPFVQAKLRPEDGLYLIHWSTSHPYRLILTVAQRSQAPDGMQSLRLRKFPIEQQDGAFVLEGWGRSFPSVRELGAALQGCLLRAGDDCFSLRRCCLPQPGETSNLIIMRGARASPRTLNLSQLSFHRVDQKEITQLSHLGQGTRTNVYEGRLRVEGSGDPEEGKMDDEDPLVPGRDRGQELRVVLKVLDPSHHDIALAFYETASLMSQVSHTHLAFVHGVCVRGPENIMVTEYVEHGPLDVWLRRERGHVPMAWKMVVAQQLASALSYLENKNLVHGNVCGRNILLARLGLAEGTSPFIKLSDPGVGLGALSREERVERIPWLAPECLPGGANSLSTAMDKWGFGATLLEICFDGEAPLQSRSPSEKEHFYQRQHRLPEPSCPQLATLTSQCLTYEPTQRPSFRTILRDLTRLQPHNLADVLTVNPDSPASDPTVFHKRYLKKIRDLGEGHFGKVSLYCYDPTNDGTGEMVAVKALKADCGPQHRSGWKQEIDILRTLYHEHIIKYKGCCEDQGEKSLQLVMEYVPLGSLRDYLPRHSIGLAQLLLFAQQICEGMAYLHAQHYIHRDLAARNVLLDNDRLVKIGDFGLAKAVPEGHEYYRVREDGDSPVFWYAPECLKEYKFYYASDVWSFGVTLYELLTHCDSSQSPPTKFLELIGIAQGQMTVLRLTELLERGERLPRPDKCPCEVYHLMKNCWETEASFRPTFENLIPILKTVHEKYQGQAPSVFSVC

Regarding `CNC(=O)c1cnc(NC(=O)NCCCCCCCc2cccc3c2n(C)c(=O)n3C2CCC(=O)NC2=O)cc1Nc1cccc(-c2ncc(F)cn2)c1OC` (stereo not drawn) [Example K185], the DC50 at TYK2 [1] was more than 100 nM; on TYK2 [2] it was more than 100 nM; at TYK2 [3], 1 to 10 nM.

Regarding `CNC(=O)c1cnc(NC(=O)NCCCCCCCCCc2ccc3c(c2)n(C)c(=O)n3C2CCC(=O)NC2=O)cc1Nc1cccc(-c2ncc(F)cn2)c1OC` (stereo not drawn) [Example K186], the results for the DC50 at TYK2 [1], on TYK2 [2] and on TYK2 [3] were more than 100 nM, more than 100 nM and 1 to 10 nM, respectively.

As to `CNC(=O)c1cnc(NC(=O)NCCCCCCCCc2ccc3c(c2)n(C)c(=O)n3C2CCC(=O)NC2=O)cc1Nc1cccc(-c2ncc(F)cn2)c1OC` (stereo not drawn) [Example K187], the DC50 on TYK2 [1] was more than 100 nM; at TYK2 [2] it was more than 100 nM; on TYK2 [3], 1 to 10 nM.

Consider `CNC(=O)c1cnc(NC(=O)NCCCCCCCc2ccc3c(c2)n(C)c(=O)n3C2CCC(=O)NC2=O)cc1Nc1cccc(-c2ncc(F)cn2)c1OC` (stereo not drawn) [Example K188], for which the DC50 at TYK2 [1] was more than 100 nM; at TYK2 [2] it was more than 100 nM; on TYK2 [3] it was less than 1 nM.

Turning to `CNC(=O)c1cnc(Nc2ccc(C(=O)NCCCCc3cccc4c3n(C)c(=O)n4C3CCC(=O)NC3=O)cn2)cc1Nc1cccn(C)c1=O` (stereo not drawn) [Example K189], the results for the DC50 on TYK2 [1], on TYK2 [2] and at TYK2 [3] were more than 100 nM, 10 to 100 nM and 10 to 100 nM, respectively.

`CNC(=O)c1cnc(Nc2ccc(C(=O)NCCCCc3cccc4c3n(C)c(=O)n4C3CCC(=O)NC3=O)cn2)cc1Nc1ccccc1S(C)(=O)=O` (stereo not drawn) [Example K190]: the DC50 at TYK2 [1] is 10 to 100 nM; on TYK2 [2], more than 100 nM; on TYK2 [3], 1 to 10 nM.

Consider `CNC(=O)c1cnc(Nc2ccc(C(=O)NCCCCc3cccc4c3n(C)c(=O)n4C3CCC(=O)NC3=O)cn2)cc1Nc1ccccc1OC` (stereo not drawn) [Example K191], for which the DC50 was more than 100 nM at TYK2 [1], 1 to 10 nM on TYK2 [2] and 1 to 10 nM at TYK2 [3].

Take `CNC(=O)c1cnc(Nc2ccc(C(=O)NCCCCc3cccc4c3n(C)c(=O)n4C3CCC(=O)NC3=O)cn2)cc1Nc1ccccc1` (stereo not drawn) [Example K192]: the DC50 is more than 100 nM on TYK2 [1], 1 to 10 nM at TYK2 [2] and 1 to 10 nM on TYK2 [3].

In the case of `CNC(=O)c1cnc(Nc2cc(C(=O)NCCCCCCc3cccc4c3n(C)c(=O)n4C3CCC(=O)NC3=O)ccn2)cc1Nc1cccc(-c2ncc(F)cn2)c1OC` (stereo not drawn) [Example K193], the results for the DC50 on TYK2 [1], on TYK2 [2] and at TYK2 [3] were 1 to 10 nM, more than 100 nM and 1 to 10 nM, respectively.

Turning to `CNC(=O)c1cnc(Nc2ccc(CN3CCN(Cc4ccc5c(c4)n(C)c(=O)n5C4CCC(=O)NC4=O)CC3)cn2)cc1Nc1cccc(-c2ncc(F)cn2)c1OC` (stereo not drawn) [Example K194], the DC50 at TYK2 [1] is more than 100 nM; at TYK2 [2] it was more than 100 nM; on TYK2 [3], less than 1 nM.

As to `CNC(=O)c1cnc(Nc2ccc(C(=O)N(C)C3CCN(c4cccc5c4n(C)c(=O)n5C4CCC(=O)NC4=O)CC3)cn2)cc1Nc1ccccc1OC` (stereo not drawn) [Example K195], the DC50 at TYK2 [1] is 1 to 10 nM; on TYK2 [2] it was more than 100 nM; at TYK2 [3], more than 100 nM.

As to `CNC(=O)c1cnc(Nc2ccc(N3CCN(c4ccc5c(c4)n(C)c(=O)n5C4CCC(=O)NC4=O)CC3)cn2)cc1Nc1cccc(-c2ncc(F)cn2)c1OC` (stereo not drawn) [Example K196], the DC50 on TYK2 [1] was more than 100 nM; at TYK2 [2], less than 1 nM; at TYK2 [3], less than 1 nM.

Take `CNC(=O)c1cnc(Nc2ccc(C3CCN(Cc4ccc5c(c4)n(C)c(=O)n5C4CCC(=O)NC4=O)CC3)cn2)cc1Nc1cccc(-c2ncc(F)cn2)c1OC` (stereo not drawn) [Example K197]: the results for the DC50 on TYK2 [1], on TYK2 [2] and at TYK2 [3] were more than 100 nM, more than 100 nM and less than 1 nM, respectively.

Regarding `CNC(=O)c1cnc(Nc2ccc(CN3CC(c4cccc5c4n(C)c(=O)n5C4CCC(=O)NC4=O)C3)cn2)cc1Nc1cccc(-c2ncc(F)cn2)c1OC` (stereo not drawn) [Example K198], the results for the DC50 on TYK2 [1], on TYK2 [2] and at TYK2 [3] were more than 100 nM, more than 100 nM and less than 1 nM, respectively.

`CNC(=O)c1cnc(Nc2ccc(CN3CC(c4ccc5c(c4)n(C)c(=O)n5C4CCC(=O)NC4=O)C3)cn2)cc1Nc1cccc(-c2ncc(F)cn2)c1OC` (stereo not drawn) [Example K199]: the half-maximal degradation concentration (DC50) on TYK2 [1] is more than 100 nM; on TYK2 [2], more than 100 nM; at TYK2 [3], 1 to 10 nM.

On to `Cn1c(=O)n(C2CCC(=O)NC2=O)c2ccc(CCOCCOCCNc3cc(Nc4cccn(-c5ccccn5)c4=O)nn4c(C(=O)N[C@@H]5C[C@@H]5F)cnc34)cc21` (stereo partly drawn) [Example K201], for which the DC50 at TYK2 [1], at TYK2 [2] and at TYK2 [3] was more than 100 nM in each case.

Consider `Cn1c(=O)n(C2CCC(=O)NC2=O)c2ccc(CCOCCOCCOCCOCCNc3cc(Nc4cccn(-c5ccccn5)c4=O)nn4c(C(=O)NC5C[C@@H]5F)cnc34)cc21` (stereo partly drawn) [Example K202], for which the DC50 on TYK2 [1], at TYK2 [2] and on TYK2 [3] was more than 100 nM in each case.

On to `Cn1c(=O)n(C2CCC(=O)NC2=O)c2ccc(CCCCNc3cc(Nc4cccn(-c5ccccn5)c4=O)nn4c(C(=O)N[C@@H]5C[C@@H]5F)cnc34)cc21` (stereo partly drawn) [Example K204], for which the DC50 at TYK2 [1], on TYK2 [2] and at TYK2 [3] was more than 100 nM in each case.

For `Cn1c(=O)n(C2CCC(=O)NC2=O)c2cccc(CCCCNc3cc(Nc4cccn(-c5ccccn5)c4=O)nn4c(C(=O)N[C@@H]5C[C@@H]5F)cnc34)c21` (stereo partly drawn) [Example K205], the DC50 at TYK2 [1], on TYK2 [2] and at TYK2 [3] was more than 100 nM each time.

On to `Cn1c(=O)n(C2CCC(=O)NC2=O)c2cccc(CCCCCCNc3cc(Nc4cccn(-c5ccccn5)c4=O)nn4c(C(=O)N[C@@H]5C[C@@H]5F)cnc34)c21` (stereo partly drawn) [Example K206], for which the DC50 on TYK2 [1], at TYK2 [2] and at TYK2 [3] was more than 100 nM each time.

For the compound `Cn1c(=O)n(C2CCC(=O)NC2=O)c2ccc(CCCCCCNc3cc(Nc4cccn(-c5ccccn5)c4=O)nn4c(C(=O)N[C@@H]5C[C@@H]5F)cnc34)cc21` (stereo partly drawn) [Example K207], the DC50 at TYK2 [1], at TYK2 [2] and at TYK2 [3] was more than 100 nM in each case.

As to `Cn1c(=O)n(C2CCC(=O)NC2=O)c2ccc(CCCCCCCCNc3cc(Nc4cccn(-c5ccccn5)c4=O)nn4c(C(=O)N[C@@H]5C[C@@H]5F)cnc34)cc21` (stereo partly drawn) [Example K208], the DC50 at TYK2 [1], on TYK2 [2] and on TYK2 [3] was more than 100 nM each time.

Consider `Cn1c(=O)n(C2CCC(=O)NC2=O)c2cccc(CCCCCCCCNc3cc(Nc4cccn(-c5ccccn5)c4=O)nn4c(C(=O)N[C@@H]5C[C@@H]5F)cnc34)c21` (stereo partly drawn) [Example K209], for which the DC50 on TYK2 [1], on TYK2 [2] and on TYK2 [3] was more than 100 nM in each case.

On to `Cn1c(=O)n(C2CCC(=O)NC2=O)c2ccc(CCCCCCCCCCNc3cc(Nc4cccn(-c5ccccn5)c4=O)nn4c(C(=O)N[C@@H]5C[C@@H]5F)cnc34)cc21` (stereo partly drawn) [Example K210], for which the DC50 on TYK2 [1], on TYK2 [2] and at TYK2 [3] was more than 100 nM in each case.

With `Cn1c(=O)n(C2CCC(=O)NC2=O)c2ccc(CCCCCCCCCCCCNc3cc(Nc4cccn(-c5ccccn5)c4=O)nn4c(C(=O)N[C@@H]5C[C@@H]5F)cnc34)cc21` (stereo partly drawn) [Example K211], the DC50 at TYK2 [1], on TYK2 [2] and at TYK2 [3] was more than 100 nM throughout.

Consider `Cn1c(=O)n(C2CCC(=O)NC2=O)c2cccc(CCOCCOCCNc3cc(Nc4cccn(-c5ccccn5)c4=O)nn4c(C(=O)N[C@@H]5C[C@@H]5F)cnc34)c21` (stereo partly drawn) [Example K212], for which the DC50 on TYK2 [1], at TYK2 [2] and on TYK2 [3] was more than 100 nM each time.

As for `Cn1c(=O)n(C2CCC(=O)NC2=O)c2cccc(CCOCCOCCOCCOCCOCCOCCNc3cc(Nc4cccn(-c5ccccn5)c4=O)nn4c(C(=O)N[C@@H]5C[C@@H]5F)cnc34)c21` (stereo partly drawn) [Example K213], the DC50 at TYK2 [1], at TYK2 [2] and on TYK2 [3] was more than 100 nM each time.

In the case of `Cn1c(=O)n(C2CCC(=O)NC2=O)c2cccc(CCOCCOCCOCCOCCNc3cc(Nc4cccn(-c5ccccn5)c4=O)nn4c(C(=O)N[C@@H]5C[C@@H]5F)cnc34)c21` (stereo partly drawn) [Example K214], the 50% degradation concentration (DC50) at TYK2 [1], on TYK2 [2] and at TYK2 [3] was more than 100 nM throughout.

Turning to `CNc1cc(Nc2cccn(-c3ccc(C(=O)NCCOCCOCCOCCOCCOCCOCCc4ccc5c(c4)n(C)c(=O)n5C4CCC(=O)NC4=O)cn3)c2=O)nn2c(C(=O)N[C@@H]3C[C@@H]3F)cnc12` (stereo partly drawn) [Example K215], the DC50 is more than 100 nM at TYK2 [1], more than 100 nM at TYK2 [2] and 10 to 100 nM on TYK2 [3].

For the compound `CNc1cc(Nc2cccn(-c3ccc(C(=O)NCCOCCOCCc4cccc5c4n(C)c(=O)n5C4CCC(=O)NC4=O)cn3)c2=O)nn2c(C(=O)N[C@@H]3C[C@@H]3F)cnc12` (stereo partly drawn) [Example K216], the DC50 at TYK2 [1] was more than 100 nM; on TYK2 [2], more than 100 nM; on TYK2 [3], 1 to 10 nM.

Consider `CNc1cc(Nc2cccn(-c3ccc(C(=O)NCCOCCOCCOCCOCCOCCOCCc4cccc5c4n(C)c(=O)n5C4CCC(=O)NC4=O)cn3)c2=O)nn2c(C(=O)N[C@@H]3C[C@@H]3F)cnc12` (stereo partly drawn) [Example K217], for which the DC50 was 10 to 100 nM on TYK2 [1], more than 100 nM on TYK2 [2] and 10 to 100 nM on TYK2 [3].

For `CNc1cc(Nc2cccn(-c3ccc(C(=O)NCCOCCOCCOCCOCCc4cccc5c4n(C)c(=O)n5C4CCC(=O)NC4=O)cn3)c2=O)nn2c(C(=O)N[C@@H]3C[C@@H]3F)cnc12` (stereo partly drawn) [Example K218], the DC50 is more than 100 nM on TYK2 [1], more than 100 nM on TYK2 [2] and 10 to 100 nM at TYK2 [3].

By DC50 is commonly meant the midpoint of the concentration-degradation curve.

The record behind these values is patent publication US20250051338A1, “TYK2 DEGRADERS AND USES THEREOF” (Kymera Therapeutics, Inc., priority 2021, published 2025).
